In patent publication US8309593B2, “2-acylaminopropoanol-type glucosylceramide synthase inhibitors” (Genzyme Corporation, priority 2008, dated 2012):
Where two headings read alike, the source gives them in different places. Each block holds one compound with its values, some of them ahead of it.

Columns and labels:
[1] = test system: jck mice; assay: PKD mouse model (jck mice, compound in feed); format: in vivo; details: for BUN / Body weight / Cystic volume / K/BW ratio: 0.225% Compound A in feed
Protocol: jck mice was administered Compound A ad libitum in feed (0.225% Compound A mixed with a standard diet chow in powdered format) from 26-64 days of age. Control jck mice were fed a control powdered diet from 26-64 days of age. At 63 days of age, animals were transferred to metabolic cages for 24 hour urine collection. At 64 days of age, animals were sacrificed by CO2 administration. Blood was collected by heart puncture for serum isolation. Kidneys were isolated and bisected; half of each kidney was fixed in 4% paraformaldehyde in PBS overnight for paraffin embedding and H&E staining.
Total body weight and kidney weight were determined at sacrifice.
Cyst volume was measured by quantitating the percentage of cystic area in histological sections of kidneys from the treated and control animals, multiplied by the kidney/body weight ratio.
Blood urea nitrogen (BUN) levels were determined in serum samples derived from animals at sacrifice.

[2] = test system: GM3; assay: GM3 Elisa assay; format: cell-based; details: read-out: IC50_uM_Mean
Protocol: B16-FO cells from ATCC (American Tissue Culture Collection) were grown in DMEM media (ATCC) with 10% Fetal Bovine Serum (Hyclone) and Pen/Step/Glutamine (Biowhittaker). 4000 cells per well were plated on collagen coated plates (BD) and allowed to attach for 6 hours in an incubator (37 degrees, 5% CO2). After 6 hours the compounds and controls were added to the wells, the plates mixed and returned to the incubator for 2 days. Day of assay the cells were fixed for 20 minutes with 1% formaldehyde and then washed with Tris Buffered Saline (TBS) 3 times, 150 μl of TBS was left in the wells and 50 μl of goat serum (Invitrogen) was added, the plates mixed and incubated for 1 hour at room temperature. The plates were flicked and the cells incubated with the monoclonal Antibody to GM3 (NeuAc) (Cosmo) for 45 minutes as room temperature. The plates were then washed 3 times with TBS, leaving 150 μl of TBS in the wells and Peroxidase AffinPure F (ab′) 2 frag Gt Anti-mouse IgM, μ Chain Specific (Jackson Immuno Research) was added in 50 μl, the plates mixed and incubated for 45 minutes at room temperature. The plates were washed 3 times with TBS, flicked and blotted and 100 μl of Quantablu (Pierce) was added to the wells and incubated for 1 hour then read on a Fluorometer at Ex 325 and Em 420. The data was then analyzed using standard programs.

[3] = female jck mice, 26-64 days of age
[4] = male jck mice, 26-64 days of age

Structure (SMILES): CCCCCCCCC(=O)N[C@H](CN1CCCC1)[C@H](O)c1ccc2c(c1)OCCO2 [Compound A, N-((1R,2R)-1-(2,3-dihydrobenzo[b][1,4]dioxin-6-yl)-1-hydroxy-3-(pyrrolidin-1-yl)propan-2-yl)nonanamide]
BUN [1, 3]: 34.67 ± 9.41 mg/dL
Body weight [1, 3]: 15.93 ± 1.65 g
Cystic volume [1, 3]: 0.58 ± 0.29 % BW
K/BW ratio [1, 3]: 3.57 ± 0.58 %
total body weight ([1]; jck mice, 0.225% in feed, 26-64 days of age, at sacrifice, vs control, p-value<0.05, two-tailed t-test): statistically significant decrease
cyst volume ([1]; jck mice, 0.225% in feed, 26-64 days of age, percentage cystic area x kidney/body weight ratio, vs control, p-value<0.05): significant decrease
Blood urea nitrogen (BUN) levels ([1]; jck mice, 0.225% in feed, 26-64 days of age, serum at sacrifice, vs untreated controls, p-value<0.05): significant reduction
cystic disease ([1]; jck mice, 0.225% in feed, as measured by kidney/body weight ratio and cyst volume, males and females): statistically significant reduction
renal function ([1]; jck mice, 0.225% in feed, treated animals relative to controls, males and females): improved renal function
BUN [1, 4]: 39.25 ± 10.70 mg/dL
Body weight [1, 4]: 18.43 ± 1.82 g
Cystic volume [1, 4]: 0.88 ± 0.23 % BW
K/BW ratio [1, 4]: 4.46 ± 0.46 %

IC50 ([2]; 48 h, Table 1, B16-FO cells, 2 days with compound): ≤ 100 nM
Structure (SMILES): O=C(CCC(=O)c1ccc(C(F)(F)F)cc1)N[C@H](CN1CCCC1)[C@H](O)c1ccc2c(c1)OCCO2 [Compound 176, N-((1R,2R)-1-(2,3-dihydrobenzo[β][1,4]dioxin-6-yl)-1-hydroxy-3-(pyrrolidin-1-yl)propan-2-yl)-4-oxo-4-(4-(trifluoromethyl)phenyl)butanamide (2S,3S)-2,3-dihydroxysuccinate]

IC50 ([2]; Table 3 (title: IC 50 Values)): 3000 to 10000 nM
Structure (SMILES): COC[C@H]1CCCN1C[C@@H](NC(=O)CCOc1ccc(OC)cc1)[C@@H](O)c1ccc2c(c1)OCCO2 [Compound 538]

IC50 ([2]; Table 3 (title: IC 50 Values)): ≤ 100 nM
Structure (SMILES): O=C(CCCCCC(=O)c1ccc(F)cc1)N[C@H](CN1CCCC1)[C@@H](O)c1ccc2c(c1)OCCO2 [Compound 628]
